Experimental data as given in patent US5330983A, “14-O-p-chlorobenzoylaconine and analgesic/anti-inflammatory agent containing the same” (priority 1991, dated 1994).
Counter-ions that a name gives are not always drawn.

How the values were obtained:
[1] = tested on: Male mice of the Std:ddY Strain; assay: Analgesic activity by the acetic acid-induced writhing method; format: in vivo; conditions: acetic acid i.p., counted for 10 min, n = 10
Experimental: Measurement of Analgesic Activity by the Acetic Acid-Induced Writhing Method
Male mice of the Std:ddY Strain (20-25 g), which were fasted for one night before the initiation of the experiment, were used. Test compound hardly soluble in water was used in 3% suspension in gum arabic. Test compound taking a salt form was used in aqueous solution. 0.7% acetic acid in 0.9% physiological saline solution was injected i.p. (10 ml/kg) at 2 hours and 50 minutes after the test compound was administered p.o. After 10 minutes, the number of writhing movements was counted for a period of 10 minutes.

[2] = tested on: Male rats of the Wistar strain; assay: Antiinflammatory activity by the carrageenin-induced hind paw edema; format: in vivo; conditions: 100 mg/kg p.o.
Experimental: Measurement of Antiinflammatory Activity by the Carrageenin-Induced Hind Paw Edema
Male rats of the Wistar strain (5 weeks old, 120-130 g), which were fasted for one night before the initiation of the experiment, were used. One hour after the oral administration of test compound, λ-carrageenin (1%) was injected s.c. under the plantar surface of the right hind paw. Thereafter, at one hour intervals for 6 hours, the volume of the paw was measured using an apparatus therefor. The results were described as a swelling rate (%) calculated using the following equation:
(R-L)×100/L=swelling rate (%)
R: the volume of the right hind paw
L: the volume of the left hind paw

[3] = tested on: Male mice of the Std:ddY Strain; assay: Analgesic activity by the hot plate method; format: in vivo; conditions: 52° C. plate
Experimental: Measurement of Analgesic Activity by the Hot Plate Method
Male mice of the Std:ddY Strain (20-25 g), which were fasted for one night before the initiation of the experiment, were used. Test compound hardly soluble in water was used in 3% suspension in gum arabic. Test compound taking a salt form was used in aqueous solution. Mice were placed on a cyrindric hot plate (diameter: 22 cm, height: 11 cm) made of copper which was fixed in a water bath adjusted to 52° C. so that each animal's four paws came into contact with the plate and the time taken to show the nociceptive response (jumping and licking) as an index of pain was measured. Mice showing response times above 25 seconds were excluded from the experiment. The analgesic activity of the compound was measured at 1, 3 and 5 hours after test compound was administered p.o. The results are shown in Table 4.

[4] = tested on: Male mice of the Std:ddY Strain; assay: Analgesic activity by the tail-pressure method; format: in vivo
Experimental: Measurement of Analgesic Activity by the Tail-Pressure Method
Male mice of the Std:ddY Strain (20-25 g), which were fasted for one night before the initiation of the experiment, were used. Test compound hardly soluble in water was used in 3% suspension in gum arabic. Test compound taking a salt form was used in aqueous solution. Experiments were made with a tail-pressure apparatus. Before the administration of test compounds, the pain threshold was measured twice at intervals of 30 minutes and those mice indicating a pain threshold of 30 to 80 mmHg were selected and used. The pain threshold of each mouse was measured at 1, 3 and 5 hours after test compounds were administered p.o. The results were described as a percentage of the pain threshold after the treatment with test compound relative to that before the treatment with test compound.

in vivo = assay: in vivo; set-up: species or system mice (Std:ddY); conditions: mouse, in vivo, po; mortality during 72 hours; Litchfield-Wilcoxon
Excerpt: (§1) EXPERIMENT EXAMPLE 6 (ACUTE TOXICITY)
(§2) Male mice of the Std:ddY Strain (20-25 g), which were fasted for one night before the initiation of the experiment, were used. Test compound hardly soluble in water was used in 3% suspension in gum arabic. Test compound taking a salt form was used in aqueous solution.

[5] = tested on: Male mice of the Std:ddY Strain; assay: Analgesic activity by the phenylquinone-induced writhing method; format: in vivo; conditions: phenylquinone i.p., counted for 15 min, n = 8~10
Experimental: Measurement of Analgesic Activity by the Phenylquinone-Induced Writhing Method
Male mice of the Std:ddY Strain (20-25 g), which were fasted for one night before the initiation of the experiment, were used. Test compound hardly soluble in water was used in 3% suspension in gum arabic. Test compound taking a salt form was used in aqueous solution. 0.03% phenylquinone in 0.5% ethanol solution was injected i.p. (10 ml/kg) at 2 hours and 55 minutes after the compound was administered p.o. After 5 minutes, the number of writhings was counted for a period of 15 minutes.

[6] = tested on: Male mice of the Std:ddY Strain; assay: in vivo; conditions: p.o., mortality during 72 hours, Litchfield-Wilcoxon, 4320 min
Excerpt: as §1, §2

Property and solubility = format: physicochemical

Compound	The number of writhings, mean ± S.E. ([1]; 3 mg/kg p.o.)	The number of writhings, mean ± S.E. ([1]; 10 mg/kg p.o.)	The number of writhings, mean ± S.E. ([1]; 30 mg/kg p.o.)	Swelling rate (%, mean ± S.E.) ([2]; 1 h after carrageenin) [%]	Swelling rate (%, mean ± S.E.) ([2]; 2 h after carrageenin) [%]	Swelling rate (%, mean ± S.E.) ([2]; 3 h after carrageenin) [%]	Swelling rate (%, mean ± S.E.) ([2]; 4 h after carrageenin) [%]	Swelling rate (%, mean ± S.E.) ([2]; 5 h after carrageenin) [%]	Swelling rate (%, mean ± S.E.) ([2]; 6 h after carrageenin) [%]	Pain threshold (s, mean ± S.E.) ([3]; 100 mg/kg p.o., 1 h) [s]	Pain threshold (s, mean ± S.E.) ([3]; 100 mg/kg p.o., 3 h) [s]	Pain threshold (s, mean ± S.E.) ([3]; 100 mg/kg p.o., 5 h) [s]	Pain threshold (s, mean ± S.E.) ([3]; 300 mg/kg p.o., 1 h) [s]	Pain threshold (s, mean ± S.E.) ([3]; 300 mg/kg p.o., 3 h) [s]	Pain threshold (s, mean ± S.E.) ([3]; 300 mg/kg p.o., 5 h) [s]	Pain threshold (%, mean ± S.E.), posttreatment relative to pretreatment ([4]; 100 mg/kg p.o., 1 h) [%]	Pain threshold (%, mean ± S.E.), posttreatment relative to pretreatment ([4]; 100 mg/kg p.o., 3 h) [%]	Pain threshold (%, mean ± S.E.), posttreatment relative to pretreatment ([4]; 100 mg/kg p.o., 5 h) [%]	Pain threshold (%, mean ± S.E.), posttreatment relative to pretreatment ([4]; 300 mg/kg p.o., 1 h) [%]	Pain threshold (%, mean ± S.E.), posttreatment relative to pretreatment ([4]; 300 mg/kg p.o., 3 h) [%]	further results
CCN1CC2(COC)C(O)CC(OC)C34C5CC6(O)C(OC)C(O)C(C5C6OC(=O)c5ccccc5)C(C(OC)C23)C14 (stereo not drawn) [8-deoxy-14-O-benzoylaconine, reference compound]	24.1 ± 2.7	21.9 ± 2.6	17.8 ± 2.5	24.8 ± 9.2	36.3 ± 6.3	59.8 ± 6.3	63.5 ± 1.0	70.3 ± 3.9	72.2 ± 6.0	17.3 ± 1.7	17.9 ± 2.1	18.9 ± 1.7	18.6 ± 1.6	24.0 ± 2.3	19.6 ± 2.0	101.8 ± 14.1	100.2 ± 7.2	105.6 ± 9.2	115.6 ± 17.0	116.2 ± 12.0	Pain threshold (%, mean ± S.E.), posttreatment relative to pretreatment ([4]; 300 mg/kg p.o., 5 h): 110.2 ± 7.0%; LD50 at 72 h (in vivo): > 100 mg/kg; The number of writhings, mean ± S.E. ([5]; 3 mg/kg p.o.): 27.1 ± 2.7; The number of writhings, mean ± S.E. ([5]; 10 mg/kg p.o.): 25.0 ± 3.0; The number of writhings, mean ± S.E. ([5]; 30 mg/kg p.o.): 24.0 ± 2.3
CCN1C[C@]2(COC)[C@H](O)C[C@H](OC)[C@]34C1[C@H]([C@H](OC)[C@H]23)[C@]1(O)[C@H]2[C@@H](OC(=O)c3ccc(Cl)cc3)[C@](O)(C[C@H]24)[C@@H](OC)[C@@H]1O [14-O-p-chlorobenzoylaconine tartrate]	17.8 ± 2.5	15.5 ± 2.3	10.7 ± 2.1	16.0 ± 3.6	31.5 ± 3.1	47.3 ± 7.4	56.1 ± 2.0	49.6 ± 5.0	57.6 ± 9.0	17.3 ± 2.2	26.7 ± 3.2	24.7 ± 2.1	18.7 ± 1.7	42.5 ± 11.0	25.7 ± 2.7	102.6 ± 3.4	141.1 ± 8.3	128.0 ± 4.9	147.0 ± 7.8	240.4 ± 25.0	Pain threshold (%, mean ± S.E.), posttreatment relative to pretreatment ([4]; 300 mg/kg p.o., 5 h): 202.9 ± 19.7%; LD50 [6]: > 1000 mg/kg; The number of writhings, mean ± S.E. ([5]; 3 mg/kg p.o.): 21.1 ± 2.4; The number of writhings, mean ± S.E. ([5]; 10 mg/kg p.o.): 18.3 ± 2.2; The number of writhings, mean ± S.E. ([5]; 30 mg/kg p.o.): 15.7 ± 2.7
CCN1C[C@]2(COC)[C@H](O)C[C@H](OC)[C@]34C1[C@H]([C@H](OC)[C@H]23)[C@]1(O)[C@H]2[C@@H](OC(=O)c3ccc(Cl)cc3)[C@](O)(C[C@H]24)[C@@H](OC)[C@@H]1O [14-O-p-chlorobenzoylaconine]	19.8 ± 2.5	17.3 ± 2.4	12.9 ± 3.7	22.4 ± 8.0	28.0 ± 2.4	51.0 ± 2.8	58.6 ± 2.4	66.8 ± 3.7	72.9 ± 5.3	21.6 ± 2.2	21.6 ± 2.0	27.6 ± 0.9	22.2 ± 1.5	38.4 ± 3.3	24.0 ± 1.6	100.4 ± 2.5	129.6 ± 10.3	108.0 ± 6.0	120.0 ± 7.3	182.0 ± 21.7	Solubility in organic solvents (Property and solubility; ether, chloroform, benzene, methanol, ethanol, acetone, ethyl acetate, pyridine and dimethyl sulfoxide): Soluble; Solubility in hexane and water (Property and solubility; hexane and water): Insoluble; Pain threshold (%, mean ± S.E.), posttreatment relative to pretreatment ([4]; 300 mg/kg p.o., 5 h): 166.0 ± 20.1%; LD50 at 72 h (in vivo): > 1000 mg/kg; LD50 ([6]; listed as compound of the formula (I)): ≥ 1,000 mg/kg; The number of writhings, mean ± S.E. ([5]; 3 mg/kg p.o.): 20.1 ± 3.6; The number of writhings, mean ± S.E. ([5]; 10 mg/kg p.o.): 17.3 ± 2.8; The number of writhings, mean ± S.E. ([5]; 30 mg/kg p.o.): 15.9 ± 3.5
